Laboratory results from ChEMBL document CHEMBL3603819, “Targeting zoonotic viruses: Structure-based inhibition of the 3C-like protease from bat coronavirus HKU4--The likely reservoir host to the human coronavirus that causes Middle East Respiratory Syndrome (MERS)” (Bioorg Med Chem, 2015).

System: Pipistrellus bat coronavirus HKU5
Experiment: Inhibition of Bat coronavirus HKU5 3CLpro at 100 uM relative to control
Settings: not given

Row | Compound | inhibition
1 | O=C(Nc1ccc(N(Cc2ccsc2)C(=O)Cn2nnc3ccccc32)cc1)c1cccs1 | 91%

System: Tylonycteris bat coronavirus HKU4
Settings: at 100 µM

Row | Compound | inhibition
2 | O=C(Nc1ccc(N(Cc2ccsc2)C(=O)Cn2nnc3ccccc32)cc1)c1cccs1 | 93%
3 | CC(C)c1ccc(N(C(=O)c2ccc(C#N)cc2)C(C(=O)NC(C)(C)C)c2cccnc2)cc1 (configuration not stated) | 28%
4 | CC(C)(C)NC(=O)C(c1cccnc1)N(C(=O)c1n[nH]c2ccccc12)c1ccc(F)cc1 (configuration not stated) | 14%
5 | CCC(=O)Nc1ccc(N(C(=O)Cn2ccnc2C)C(C(=O)NC(C)(C)C)c2ccsc2)cc1 (configuration not stated) | 19%
6 | CC(C)(C)NC(=O)C(c1cccnc1)N(C(=O)Cc1cccc2ccccc12)C1CC1 (configuration not stated) | 11%
7 | CC(C)(C)NC(=O)C(c1ccsc1)N(C(=O)c1ccco1)c1ccc(OC(F)F)cc1 (configuration not stated) | 13%
8 | CC(C)(C)NC(=O)C(c1ccsc1)N(C(=O)c1ccco1)c1ccc(C(C)(C)C)cc1 (configuration not stated) | 19%
9 | CCOc1ccc(N(C(=O)c2ccco2)C(C(=O)NC(C)(C)C)c2cccnc2)cc1 (configuration not stated) | 12%
10 | CC(C)(C)NC(=O)C(c1ccsc1)N(C(=O)c1n[nH]c2ccccc12)C1CC1 (configuration not stated) | 21%
11 | CCC(C)c1ccc(N(C(=O)c2ccco2)[C@H](C(=O)NC(C)(C)C)c2cccnc2)cc1 (some centres not stated) | 39%
12 | CC(C)(C)NC(=O)C(c1cccnc1)N(C(=O)c1cccc2c1CCCC2)c1ccc(F)cc1 (configuration not stated) | 22%
13 | CCC(=O)Nc1ccc(N(C(=O)Cn2nnc3ccccc32)C(C(=O)NC(C)(C)C)c2ccsc2)cc1 (configuration not stated) | 34%
14 | CC(C)(C)NC(=O)C(c1ccsc1)N(C(=O)c1ccc(C(F)(F)F)nc1)C1CC1 (configuration not stated) | 12%
15 | CCC(=O)Nc1ccc(N(C(=O)Cn2cnc3ccccc32)C(C(=O)NC(C)(C)C)c2ccsc2)cc1 (configuration not stated) | 68%
16 | COc1ccc(N(C(=O)c2ccco2)C(C(=O)NC(C)(C)C)c2cccnc2)cc1 (configuration not stated) | 10%
17 | COCC(=O)Nc1ccc(N(Cc2ccsc2)C(=O)Cn2nnc3ccccc32)cc1 | 91%
18 | CC(C)(C)NC(=O)C(c1cccnc1)N(C(=O)Cc1cccnc1)c1ccc(F)cc1 (configuration not stated) | 47%
19 | CC(C)(C)NC(=O)C(c1cccnc1)N(C(=O)c1ccc(F)cc1)c1ccc(C(C)(C)C)cc1 (configuration not stated) | 21%
20 | CC(C)(C)NC(=O)C(c1cccnc1)N(C(=O)c1ccncc1)c1ccc(C(C)(C)C)cc1 (configuration not stated) | 13%
21 | Cc1ccoc1C(=O)N(c1ccc(C(C)C)cc1)C(C(=O)NC(C)(C)C)c1cccnc1 (configuration not stated) | 36%

Row | Compound | inhibition
22 | CC(C)(C)NC(=O)C(c1ccsc1)N(C(=O)Cn1nnc2ccccc21)c1ccc(NC(=O)c2ccccc2)cc1 (configuration not stated) | 79%
23 | CC(C)(C)NC(=O)C(c1ccsc1)N(C(=O)Cn1nnc2ccccc21)c1ccc(NC(=O)C2CC2)cc1 (configuration not stated) | 85%
24 | CC(C)(C)NC(=O)C(c1ccc(C(C)(C)C)cc1)N(C(=O)c1ccco1)c1ccc(C(C)(C)C)cc1 (configuration not stated) | 26%
25 | CC(C)(C)NC(=O)C(c1cccnc1)N(C(=O)c1ccc(C(F)(F)F)nc1)c1ccc(OCF)cc1 (configuration not stated) | 15%
26 | CC(C)(C)NC(=O)C(c1cccc(F)c1)N(C(=O)Cn1nnc2ccccc21)C12CC3CC(CC(C3)C1)C2 (configuration not stated) | 14%
27 | CC(C)(C)NC(=O)C(c1ccsc1)N(C(=O)Cc1cccnc1)c1ccc(OCF)cc1 (configuration not stated) | 29%
28 | CC(C)(C)NC(=O)C(c1cccnc1)N(C(=O)c1ccc(C(F)(F)F)o1)c1ccc(C(C)(C)C)cc1 (configuration not stated) | 16%
29 | CC(C)c1ccc(N(C(=O)c2ccco2)C(C(=O)NC(C)(C)C)c2ccsc2)cc1 (configuration not stated) | 18%
30 | CC(C)(C)NC(=O)C(c1cccnc1)N(C(=O)c1ccsc1)c1ccc(C(C)(C)C)cc1 (configuration not stated) | 16%
31 | CC(C)(C)NC(=O)C(c1ccsc1)N(C(=O)Cc1c[nH]c2ccccc12)C1CC1 (configuration not stated) | 17%
32 | CC(C)(C)NC(=O)C(c1cccnc1)N(C(=O)c1cc[nH]n1)c1ccc(C(C)(C)C)cc1 (stereo in doubt; 53B) | 28%
33 | Cc1nc2ccccc2n1CC(=O)N(c1ccc(NC(=O)C(C)C)cc1)C(C(=O)NC(C)(C)C)c1ccsc1 (configuration not stated) | 14%
34 | CC(C)C(=O)Nc1ccc(N(C(=O)Cn2cnc3ccccc32)C(C(=O)NC(C)(C)C)c2ccsc2)cc1 (configuration not stated) | 56%
35 | CC(C)(C)NC(=O)C(c1cccnc1)N(C(=O)c1cccc2c1CCCC2)C1CC1 (configuration not stated) | 18%
36 | CC(C)(C)NC(=O)C(c1ccsc1)N(C(=O)Cc1cccc2ccccc12)C1CC1 (configuration not stated) | 22%
37 | CC(C)(C)NC(=O)C(c1ccsc1)N(C(=O)c1ccc(C#N)cc1)c1ccc(OCF)cc1 (configuration not stated) | 16%
38 | CC(C)(C)OC(=O)n1cccc1-c1ccc(N(Cc2ccsc2)C(=O)Cn2nnc3ccccc32)cc1 | 31%
39 | CC(C)(C)NC(=O)C(c1cccnc1)N(C(=O)c1ccco1)c1ccc(-c2ccccc2)cc1 (configuration not stated) | 22%
40 | CCC(C)c1ccc(N(C(=O)c2ccco2)[C@@H](C(=O)NC(C)(C)C)c2cccnc2)cc1 (some centres not stated) | 20%
41 | CC(C)(C)NC(=O)C(c1ccsc1)N(C(=O)Cc1c[nH]c2ccccc12)c1ccc(C(C)(C)C)cc1 (configuration not stated) | 31%

System: not listed separately
Experiment: Inhibition of Bat coronavirus HKU5 3CLpro
Set-up: species or system Pipistrellus bat coronavirus HKU5
Settings: not given

Row | Compound | IC50
42 | O=C(Nc1ccc(N(Cc2ccsc2)C(=O)Cn2nnc3ccccc32)cc1)c1cccs1 | 540 nM
